Measured values from US12077503B2, “Substituted cyclic amides and their use as herbicides” (FMC CORPORATION, priority 2015, dated 2024).
Like-named read-outs stand apart in the source and are kept apart here.

How the values were obtained:
Assay type in all cases: in vivo
[1] = test system: ragweed (common ragweed, Ambrosia elatior); test: Test A preemergence; details: Ambrosia artemisiifolia, pre-emergence, 240 h; for pest or weed control at 125 g/ha: 125 g ai/ha, 0 to 100 scale where 0 is no effect and 100 is complete control; for pest or weed control at 500 g/ha: 500 g ai/ha
Summary of the method: (§1)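 In a loam soil and sand blend, planted seeds got a preemergence directed soil spray, and young plants at the one- to two-leaf stage, 2–10 cm high, got a postemergence application; ~10 d greenhouse hold; injury rated visually, 0 = none, 100 = complete control.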

Kochia (Kochia scoparia) = test: Test A preemergence; details: Bassia scoparia, pre-emergence, 240 h; for pest or weed control at 125 g/ha: 125 g ai/ha, 0 to 100 scale where 0 is no effect and 100 is complete control; for pest or weed control at 500 g/ha: 500 g ai/ha
Summary of the method: as §1

[2] = test system: pigweed (Amaranthus retroflexus); test: Test A preemergence; details: Amaranthus retroflexus, pre-emergence, 240 h; for pest or weed control at 125 g/ha: 125 g ai/ha, 0 to 100 scale where 0 is no effect and 100 is complete control; for pest or weed control at 500 g/ha: 500 g ai/ha
[3] = test system: barnyardgrass (Echinochloa crus-galli); test: Test A preemergence; details: Echinochloa crus-galli, pre-emergence, 240 h; for pest or weed control at 125 g/ha: 125 g ai/ha, 0 to 100 scale where 0 is no effect and 100 is complete control; for pest or weed control at 500 g/ha: 500 g ai/ha
Summary of the method: as §1

[4] = test system: ryegrass, Italian (Italian ryegrass, Lolium multiflorum); test: Test A preemergence; details: Lolium multiflorum, pre-emergence, 240 h; for pest or weed control at 125 g/ha: 125 g ai/ha, 0 to 100 scale where 0 is no effect and 100 is complete control; for pest or weed control at 500 g/ha: 500 g ai/ha
Summary of the method: as §1

[5] = test system: giant foxtail (Setaria faberii); test: Test A preemergence; details: Setaria faberi, pre-emergence, 240 h; for pest or weed control at 125 g/ha: 125 g ai/ha, 0 to 100 scale where 0 is no effect and 100 is complete control; for pest or weed control at 500 g/ha: 500 g ai/ha
Summary of the method: as §1

[6] = test system: barnyardgrass (Echinochloa crus-galli); test: Test B flooded paddy test; details: Flood, 250 g ai/ha
Summary of the method: (§2)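 Evaluation by eye, against controls, occurred 13–15 d post-treatment in a greenhouse, using a 0 (no effect) to 100 (complete control) scale. Application was into the paddy water, 3 cm deep over the soil, on 2-leaf plants.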

[7] = test system: ducksalad (Heteranthera limosa); test: Test B flooded paddy test; details: Flood, 250 g ai/ha
Summary of the method: as §2

[8] = test system: sedge, umbrella (small-flower umbrella sedge, Cyperus difformis); test: Test B flooded paddy test; details: Flood, 250 g ai/ha
Summary of the method: as §2

rice (Oryra sativa) = test: Test B flooded paddy test; details: Flood, 250 g ai/ha
Summary of the method: as §2

[9] = test system: ragweed (common ragweed, Ambrosia elatior); test: Test A postemergence; details: Ambrosia artemisiifolia, post-emergence, 240 h; for pest or weed control at 125 g/ha: 125 g ai/ha, postemergence
Summary of the method: as §1

corn (Zea mays) = test: Test A postemergence; details: Zea mays, post-emergence, 240 h
Summary of the method: as §1

[10] = test system: pigweed (Amaranthus retroflexus); test: Test A postemergence; details: Amaranthus retroflexus, post-emergence, 240 h; for pest or weed control at 125 g/ha: 125 g ai/ha, postemergence
Summary of the method: as §1

[11] = test system: blackgrass (Alopecurus myosuroides); test: Test A postemergence; details: Alopecurus myosuroides, post-emergence, 240 h; for pest or weed control at 125 g/ha: 125 g ai/ha, postemergence
Summary of the method: as §1

[12] = test system: ryegrass, Italian (Italian ryegrass, Lolium multiflorum); test: Test A postemergence; details: Lolium multiflorum, post-emergence, 240 h; for pest or weed control at 125 g/ha: 125 g ai/ha, postemergence
Summary of the method: as §1

[13] = 0 to 100 scale where 0 is no effect and 100 is complete control, 13 to 15 d

CN1C[C@H](c2ccc(F)c(F)c2)[C@@H](C(=O)Nc2ccccc2F)C1=O [Compound 596, (3S,4S)-4-(3,4-difluorophenyl)-N-(2-fluorophenyl)-1-methyl-2-oxo-3-pyrrolidinecarboxamide]
pest or weed control at 125 g/ha ([1]; Preemergence, visual injury after approximately 10 d, read-out: Plant response rating, Ragweed): 0% | pest or weed control at 500 g/ha ([1]; Preemergence, visual injury approx. 10 d, read-out: Ragweed plant response rating (0 to 100 scale, 0 is no effect, 100 is complete control)): 20% | pest or weed control at 125 g/ha (Kochia (Kochia scoparia); Preemergence, visual injury after approximately 10 d, read-out: Plant response rating, Kochia): 20% | pest or weed control at 500 g/ha (Kochia (Kochia scoparia); Preemergence, visual injury approx. 10 d, read-out: Kochia plant response rating (0 to 100 scale, 0 is no effect, 100 is complete control)): 70% | pest or weed control at 125 g/ha ([2]; Preemergence, visual injury after approximately 10 d, read-out: Plant response rating, Pigweed): 0% | pest or weed control at 500 g/ha ([2]; Preemergence, visual injury approx. 10 d, read-out: Pigweed plant response rating (0 to 100 scale, 0 is no effect, 100 is complete control)): 40% | pest or weed control at 125 g/ha ([3]; Preemergence, visual injury after approximately 10 d, read-out: Plant response rating, Barnyardgrass): 90% | pest or weed control at 500 g/ha ([3]; Preemergence, visual injury approx. 10 d, read-out: Barnyardgrass plant response rating (0 to 100 scale, 0 is no effect, 100 is complete control)): 100% | pest or weed control at 125 g/ha ([4]; Preemergence, visual injury after approximately 10 d, read-out: Plant response rating, Ryegrass, Italian): 40% | pest or weed control at 500 g/ha ([4]; Preemergence, visual injury approx. 10 d, read-out: Ryegrass, Italian plant response rating (0 to 100 scale, 0 is no effect, 100 is complete control)): 50% | pest or weed control at 125 g/ha ([5]; Preemergence, visual injury after approximately 10 d, read-out: Plant response rating, Foxtail, Giant): 100% | pest or weed control at 500 g/ha ([5]; Preemergence, visual injury approx. 10 d, read-out: Foxtail, Giant plant response rating (0 to 100 scale, 0 is no effect, 100 is complete control)): 100% | Plant response rating, Barnyardgrass [6, 13]: 95 | Plant response rating, Ducksalad [7, 13]: 100 | Plant response rating, Sedge, Umbrella [8, 13]: 0 | Plant response rating, Rice (rice (Oryra sativa); [13]): 0 | pest or weed control at 125 g/ha ([9]; visual rating after approx. 10 d, 0 to 100 scale (0 no effect, 100 complete control), read-out: Plant response rating, Ragweed): 0% | pest or weed control at 500 g/ha ([9]; Postemergence, 500 g ai/ha, 0 to 100 scale where 0 is no effect and 100 is complete control, read-out: Plant response rating, Ragweed): 0% | Corn plant response rating (crop injury, 0 = no effect, 100 = complete kill) at 125 g/ha (corn (Zea mays); 125 g ai/ha, postemergence, visual rating after approx. 10 d, 0 to 100 scale (0 no effect, 100 complete control)): 20% | Corn plant response rating (crop injury, 0 = no effect, 100 = complete kill) at 500 g/ha (corn (Zea mays); Postemergence, 500 g ai/ha, 0 to 100 scale where 0 is no effect and 100 is complete control): 60% | pest or weed control at 125 g/ha ([10]; visual rating after approx. 10 d, 0 to 100 scale (0 no effect, 100 complete control), read-out: Plant response rating, Pigweed): 0% | pest or weed control at 500 g/ha ([10]; Postemergence, 500 g ai/ha, 0 to 100 scale where 0 is no effect and 100 is complete control, read-out: Plant response rating, Pigweed): 20% | pest or weed control at 125 g/ha ([11]; visual rating after approx. 10 d, 0 to 100 scale (0 no effect, 100 complete control), read-out: Plant response rating, Blackgrass): 20% | pest or weed control at 500 g/ha ([11]; Postemergence, 500 g ai/ha, 0 to 100 scale where 0 is no effect and 100 is complete control, read-out: Plant response rating, Blackgrass): 50% | pest or weed control at 125 g/ha ([12]; visual rating after approx. 10 d, 0 to 100 scale (0 no effect, 100 complete control), read-out: Plant response rating, Ryegrass, Italian): 0% | pest or weed control at 500 g/ha ([12]; Postemergence, 500 g ai/ha, 0 to 100 scale where 0 is no effect and 100 is complete control, read-out: Plant response rating, Ryegrass, Italian): 40%

CCOc1ccc([C@H]2CNC(=O)[C@@H]2C(=O)Nc2cccc(F)c2F)cc1 [Compound 907]
pest or weed control at 125 g/ha ([1]; preemergence, read-out: Ragweed plant response rating): 0% | pest or weed control at 500 g/ha ([1]; Preemergence, visual injury vs untreated controls after approximately 10 d, read-out: Ragweed plant response rating (0 to 100 scale where 0 is no effect and 100 is complete control)): 0% | pest or weed control at 125 g/ha (Kochia (Kochia scoparia); preemergence, read-out: Kochia plant response rating): 0% | pest or weed control at 500 g/ha (Kochia (Kochia scoparia); Preemergence, visual injury vs untreated controls after approximately 10 d, read-out: Kochia plant response rating (0 to 100 scale where 0 is no effect and 100 is complete control)): 20% | pest or weed control at 125 g/ha ([2]; preemergence, read-out: Pigweed plant response rating): 0% | pest or weed control at 500 g/ha ([2]; Preemergence, visual injury vs untreated controls after approximately 10 d, read-out: Pigweed plant response rating (0 to 100 scale where 0 is no effect and 100 is complete control)): 0% | pest or weed control at 125 g/ha ([3]; preemergence, read-out: Barnyardgrass plant response rating): 70% | pest or weed control at 500 g/ha ([3]; Preemergence, visual injury vs untreated controls after approximately 10 d, read-out: Barnyardgrass plant response rating (0 to 100 scale where 0 is no effect and 100 is complete control)): 80% | pest or weed control at 125 g/ha ([4]; preemergence, read-out: Ryegrass, Italian plant response rating): 0% | pest or weed control at 500 g/ha ([4]; Preemergence, visual injury vs untreated controls after approximately 10 d, read-out: Ryegrass, Italian plant response rating (0 to 100 scale where 0 is no effect and 100 is complete control)): 0% | pest or weed control at 125 g/ha ([5]; preemergence, read-out: Foxtail, Giant plant response rating): 80% | pest or weed control at 500 g/ha ([5]; Preemergence, visual injury vs untreated controls after approximately 10 d, read-out: Foxtail, Giant plant response rating (0 to 100 scale where 0 is no effect and 100 is complete control)): 90% | pest or weed control at 250 g/ha ([6]; Echinochloa crus-galli, scale of 0 to 100 where 0 is no effect and 100 is complete control, read-out: Barnyardgrass plant response rating): 0% | pest or weed control at 250 g/ha ([7]; Heteranthera limosa, scale of 0 to 100 where 0 is no effect and 100 is complete control, read-out: Ducksalad plant response rating): 50% | pest or weed control at 250 g/ha ([8]; Cyperus difformis, scale of 0 to 100 where 0 is no effect and 100 is complete control, read-out: Sedge, Umbrella plant response rating): 0% | pest or weed control at 250 g/ha (rice (Oryra sativa); Oryza sativa, scale of 0 to 100 where 0 is no effect and 100 is complete control, read-out: Rice plant response rating): 0% | pest or weed control at 125 g/ha ([9]; visual injury rating after approximately 10 d, read-out: Ragweed plant response rating (0 to 100 scale, 0 no effect, 100 complete control)): 0% | plant injury at 125 g/ha (corn (Zea mays); 125 g ai/ha, postemergence, visual injury rating after approximately 10 d, read-out: Corn plant response rating (0 to 100 scale, 0 no effect, 100 complete control)): 0% | pest or weed control at 125 g/ha ([10]; visual injury rating after approximately 10 d, read-out: Pigweed plant response rating (0 to 100 scale, 0 no effect, 100 complete control)): 0% | pest or weed control at 125 g/ha ([11]; visual injury rating after approximately 10 d, read-out: Blackgrass plant response rating (0 to 100 scale, 0 no effect, 100 complete control)): 0% | pest or weed control at 125 g/ha ([12]; visual injury rating after approximately 10 d, read-out: Ryegrass, Italian plant response rating (0 to 100 scale, 0 no effect, 100 complete control)): 0%
